In ChEMBL document CHEMBL5620396, “Phenotypic screening identifies a trisubstituted imidazo[1,2-a]pyridine series that induces differentiation in multiple AML cell lines” (Eur J Med Chem, 2023):
In brackets after ≈: the same amount, converted by molar mass. Activity calls are given as the source filed them. No cut-off for these calls is given here.

Legend:
KG-1 [1] = experiment: Induction of morphological changes in human KG-1 cells assessed as variations in cell size and shape at 10 uM; type: functional, cell-based
ME-1 [2] = experiment: Induction of morphological changes in human ME-1 cells assessed as appearance of granules and vacuoles at 10 uM; type: functional, cell-based
[3] = AUC (0 to 8 hrs) in CD-1 mouse at 1 mg/kg, po administered as single dose and measured on day 1; type: ADME, organism-based; settings: in vivo, time 1 day
[4] = Dose normalized Cmax in CD-1 mouse at 3 mg/kg, po administered as single dose and measured over 24 hrs; type: ADME, organism-based; settings: in vivo
[5] = Half life in CD-1 mouse at 3 mg/kg, po administered as single dose and measured over 24 hrs; type: ADME, organism-based; settings: in vivo
KG-1 [6] = experiment: Induction of morphological changes in human KG-1 cells assessed as appearance of granules and vacuoles at 10 uM; type: functional, cell-based
[7] = Dose normalized Cmax in CD-1 mouse at 1 mg/kg, po administered as single dose and measured on day 1; type: ADME, organism-based; settings: in vivo, 24 h, time 1 day
[8] = AUC (0 to 8 hrs) in CD-1 mouse at 1 mg/kg, po administered as repeated dose on day 1 and 4; type: ADME, organism-based; settings: in vivo, time 4 day
[9] = AUC (0 to 8 hrs) in CD-1 mouse at 3 mg/kg, po administered as single dose and measured over 24 hrs; type: ADME, organism-based; settings: in vivo
OCI-AML-3 = experiment: Induction of morphological changes in human OCI-AML-3 cells assessed as variations in nuclear:cytoplasmic ratio at 10 uM; type: functional, cell-based
[10] = Apparent clearance in CD-1 mouse at 3 mg/kg, po administered as single dose and measured over 24 hrs; type: ADME, organism-based; settings: in vivo
ME-1 [11] = experiment: Induction of morphological changes in human ME-1 cells assessed as variations in cell size and shape at 10 uM; type: functional, cell-based
Kasumi 1 = experiment: Induction of morphological changes in human Kasumi 1 cells assessed as variations in nuclear segmentation at 10 uM; type: functional, cell-based
[12] = Solubility of compound at pH 7; type: physicochemical; settings: buffer
[13] = Plasma protein binding in mouse; type: ADME, cell-free; settings: read-out: PPB (converted)
[14] = Solubility of compound at pH 1; type: physicochemical; settings: buffer
[15] = Cmax in CD-1 mouse at 20 mg/kg, po administered as single dose and measured on day 1; type: ADME, organism-based; settings: in vivo, time 1 day
[16] = Semi-thermodynamic aqueous solubility of compound; type: physicochemical; settings: buffer; read-out: Therm_solubility

SMILES: Cc1cc(F)ccc1-c1cc(NS(C)(=O)=O)c2ncc(-c3ccc4c(cnn4C)c3)n2c1
- Activity (KG-1 [1]): Active
- Activity (ME-1 [2]): Active
- AUC(0-t) at 24 h [3]: 845 ng·h/mL
- Cmax/dose [4]: 120 ng/mL
- half-life [5]: 2.2 h
- Activity (KG-1 [6]): Active
- Cmax/dose [7]: 187 ng/mL
- AUC(0-t) at 96 h [8]: 731 ng·h/mL
- AUC(0-t) at 24 h [9]: 3060 ng·h/mL
- Activity (OCI-AML-3): Active
- CL/F [10]: 16 mL/min/kg
- Activity (ME-1 [11]): Active
- Activity (Kasumi 1): Active
- solubility [12]: 21 µM (≈ 9.44 µg/mL)
- fraction unbound [13]: 0.005
- solubility [14]: > 100 µM
- Cmax [15]: 677 ng/mL
- solubility thermodynamic [16]: 21 µM (≈ 9.44 µg/mL)
